Test [1] deals with patients suffering from the rheumatoid arthritis. The conditions noted are these: A/A genotype (68 individuals) versus A/C and C/C (31 individuals); administration for at least 3 months; cited from earlier work.
In test [2] the test system is patients suffering from rheumatoid arthritis. Put plainly: Relationship between genotype of A1298C polymorphism in the MTHFR gene and dose of methotrexate 12 months after start of administration (157 patients). It counts as in vivo, human. To be noted: for Risk ratio of high dose: high dose = more than 6 mg/week at 12 months. The procedure:
Target patients were 157 patients (M/F=24/133) suffering from rheumatoid arthritis who were attending to Institute of Rheumatology Tokyo Women's Medical University Hospital. All of those patients were different from patients examined in Non-Patent Document 3.
Examinations were performed on genotypes of A1298C in the MTHFR gene in these 157 patients suffering from rheumatoid arthritis and doses of methotrexate to the patients 12 months after a start of administration.
Genomic DNA was extracted from leukocytes in peripheral blood of each patient suffering from rheumatoid arthritis. From the genomic DNA, a DNA region including A1298C in the MTHFR gene was amplified by PCR. The primers shown in SEQ ID NO: 1 and SEQ ID NO: 2 in Sequence Listing were used for the amplification.
The DNA amplification reaction was performed in a system of a total volume of 50 μl, which contains 5 μl of 10×PCR Buffer (Applied Biosystem, Japan), 0.5 μl (=2.5 U) of AmpliTaq Gold (Applied Biosystem, Japan), 5.01 of 8 mM dNTP (200 μM of each dNTP), and 1 μl of each 10 pmole primer (0.2 μM of each primer). Conditions of the PCR included: totally 34 cycles of denaturing at 95° C. for 10 minutes, of reactions each at 95° C. for 30 seconds, at 65° C. for 30 seconds, and at 72° C. for 60 seconds; and final extension at 72° C. for 7 minutes.
The products amplified by the PCR were cut by the restriction enzyme Fnu4I and subjected to electrophoresis to examine whether they were cut or not, to thereby determine the genotypes (A/A, A/C, C/C) in each patient.
Alleles and genotypes in group were compared by using Fisher's exact test for statistic analysis and Chi-square test, and Excel was used as a statistical software.
In the present Example, a dose of more than 6 mg/week 12 months after the start of the administration of the methotrexate was defined as a high dose, and otherwise defined as a low dose. Individuals were classified into A/A, A/C, and C/C based on the genotypes of A1298C polymorphism in the MTHFR and summarized to a relationship between the genotypes and the high dose. As shown in FIG. 1 and Table 2, a ratio of the high dose of the methotrexate was high in the order of A/A>A/C>C/C in the genotypes. […] A possibility that patients having the A/A genotype are required to have a high dose of the methotrexate is 49%. Compared with this, possibilities of patients having the A/C genotype and patients having the C/C genotype were 28% and 13%, respectively (Table 2 and FIG. 1). There were a difference of 1.7 (risk ratio, P<0.05) between A/A and A/C, and a difference of 3.8 (risk ratio, P<0.05) between A/A and C/C.
Table 3 and FIG. 2 show a relationship between the A/A genotype of A1298C polymorphism in the MTHFR and a dose and a relationship between the other genotypes (A/C and C/C) and a dose in all the subjects of the patients suffering from the rheumatoid arthritis. In the present reference example, the dose of more than 6 mg/week 12 months after the start of the administration of the methotrexate was defined as a high dose, and otherwise defined as a low dose. Genotypes of A1298C polymorphism in the MTHFR were classified into A/A and other genotype and summarized to a relationship between the genotypes and the high dose.

Marks after values point to notes of the source that are not given here.

As to `CN(Cc1cnc2nc(N)nc(N)c2n1)c1ccc(C(=O)N[C@@H](CCC(=O)O)C(=O)O)cc1` [methotrexate], the “Proportion ratio of patients administered more than 5 mg/week” value in test [1] is 1.78. The “Ratio of high dose” value is given as 0.485* in test [2] (A/A genotype, final dose more than 6 mg/week 12 months after start of administration); 0.485*,** in test [2] (A/A genotype, final dose more than 6 mg/week 12 months after start of administration, listed as MTX); 0.259} in test [2] (A/C + C/C genotypes, dose more than 6 mg/week 12 months after start of administration); 0.283* in test [2] (A/C genotype, final dose more than 6 mg/week 12 months after start of administration); 0.125** in test [2] (C/C genotype, final dose more than 6 mg/week 12 months after start of administration); 0.408 in test [2] (Total, all genotypes (157 persons), final dose more than 6 mg/week 12 months after start of administration). For the same molecule, the “Possibility that patients are required to have a high dose” value in test [2] (A/A genotype, more than 6 mg/week at 12 months) is 49%; in test [2] (A/C genotype, more than 6 mg/week at 12 months) it was 28%; in test [2] (C/C genotype, more than 6 mg/week at 12 months), 13%. The “Risk ratio of high dose” value in test [2] (A/A versus A/C genotype) amounted to 1.7; in test [2] (A/A versus C/C genotype) it was 3.8. In addition, in test [2] (either A/C or C/C genotype, more than 6 mg/week at 12 months), the “Individuals classified to a high dose” value is reported as 26%.
